Assay results: patent publication US8865448B2, “Aspergillus containing beta-glucosidase, beta-glucosidases and nucleic acids encoding the same” (Cleanvantage LLC, priority 2010, dated 2014)

What was measured:
[1] = test system: A. japonicus beta-glucosidase; settings: cellobiose; cited from earlier work
[2] = test system: A. carbonarius KLU-93 beta-glucosidase; settings: cited from earlier work
[3] = test system: Novozym 188 beta-glucosidase (Aspergillus niger), commercial preparation; test: Michaelis-Menten kinetics with cellobiose, Novozym 188; assay type: biochemical; settings: cellobiose as substrate, 50° C.
Description: (§1) In this work specific activity (U/mg) is defined as units per amount of total protein. […] The assay using 5 mM pNPG in NaCltrate buffer pH 4.8 was performed as previously described; enzyme samples were assayed at different concentrations in triple determination to ensure substrate saturation in the assay. […] The glucose concentration was measured at Dionex ICS3000 using gradient elution: 0-20% eluent B (0.5M NaAcetate in 100 mM NaOH) in 13 min followed by 2 min washing with 50% eluent B and 5 min re-equilibrating with 100% eluent A (100 mM NaOH). Samples were assayed at different concentrations in triple determination to ensure substrate saturation in the assay.
(§2) Triple determinations were performed. A substrate saturation curve was prepared by plotting substrate concentration [S] vs reaction rate, v. The Michealis Menten constants Km and Vmax were determined from Hanes-Wolf plots where substrate concentration [S] is plotted against substrate concentration over reaction rate [S]/v, and the linear relationship of the data gives a slope of 1/Vmax, a y-intercept of Km/Vmax, and an x-intercept of −Km.
(§3) Enzyme kinetics are preferably carried out on pure enzyme preparations, but are in this study used for the comparison of the beta-glucosidases of the crude enzyme extract of strain AP/Aspergillus saccharolyticus and the commercial enzyme preparation Novozym 188 and Cellic CTec. […]

[4] = molecular target: T1, Aspergillus saccharolyticus CBS 127449 beta-glucosidase BGL1, his-tagged, expressed in T. reesei, SEQ ID NO: 3 (without signal peptide SEQ ID NO: 4) (Aspergillus saccharolyticus, UniProt G0X2F9); test: Michaelis-Menten kinetics with cellobiose, purified BGL1; assay type: biochemical; settings: cellobiose as substrate, 50° C., pH 4.8, Hanes plot
T1 construct: mature form lacks signal peptide 1-19
T1 sequence (G0X2F9 20-860): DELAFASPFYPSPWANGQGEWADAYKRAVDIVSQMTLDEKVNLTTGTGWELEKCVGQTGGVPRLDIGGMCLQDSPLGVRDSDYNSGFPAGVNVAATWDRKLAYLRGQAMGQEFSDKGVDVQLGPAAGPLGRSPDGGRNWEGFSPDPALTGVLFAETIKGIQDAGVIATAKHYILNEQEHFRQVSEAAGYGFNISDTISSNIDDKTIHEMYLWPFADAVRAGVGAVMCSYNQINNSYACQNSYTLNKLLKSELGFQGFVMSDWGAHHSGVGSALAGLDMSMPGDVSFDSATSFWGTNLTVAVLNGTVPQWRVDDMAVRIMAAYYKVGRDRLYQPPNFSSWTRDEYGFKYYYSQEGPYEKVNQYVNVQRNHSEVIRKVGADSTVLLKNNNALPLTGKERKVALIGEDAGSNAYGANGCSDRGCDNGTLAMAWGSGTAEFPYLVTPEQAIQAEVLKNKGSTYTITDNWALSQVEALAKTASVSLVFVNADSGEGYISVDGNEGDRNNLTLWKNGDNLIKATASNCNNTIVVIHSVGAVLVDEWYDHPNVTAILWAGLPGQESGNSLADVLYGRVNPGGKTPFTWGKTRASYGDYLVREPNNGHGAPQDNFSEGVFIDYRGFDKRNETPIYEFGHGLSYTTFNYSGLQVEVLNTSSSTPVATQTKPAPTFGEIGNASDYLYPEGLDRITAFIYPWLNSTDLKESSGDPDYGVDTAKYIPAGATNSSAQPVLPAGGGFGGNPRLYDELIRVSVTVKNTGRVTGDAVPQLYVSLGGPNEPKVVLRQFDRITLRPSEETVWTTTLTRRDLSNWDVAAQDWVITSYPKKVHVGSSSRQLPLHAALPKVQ
Description: In this work specific activity (U/mg) is defined as units per amount of total protein. […] The assay using 5 mM pNPG in NaCltrate buffer pH 4.8 was performed as previously described; enzyme samples were assayed at different concentrations in triple determination to ensure substrate saturation in the assay. […] Samples were assayed at different concentrations in triple determination to ensure substrate saturation in the assay.

[5] = test system: A. niger BKMF-1305 beta-glucosidase; settings: cited from earlier work
[6] = test system: A. niger CCRC31494 beta-glucosidase; settings: hydrolysis of cellobiose, 40° C., pH 4.0; cited from earlier work
[7] = test system: Cellic CTec beta-glucosidases, commercial preparation; test: Michaelis-Menten kinetics with cellobiose, Cellic CTec; assay type: biochemical; settings: cellobiose as substrate, 50° C.
Description: as §1, §2, §3

[8] = test system: Aspergillus saccharolyticus (strain AP, CBS 127449) beta-glucosidases, crude enzyme extract; test: Michaelis-Menten kinetics with cellobiose, crude solid state fermentation extract of strain AP; assay type: biochemical; settings: cellobiose as substrate, 50° C.
Description: The fungal strain AP/Aspergillus saccharolyticus was grown on potato dextrose agar (Sigma) for sporulation. Spores were harvested after 7 days of growth by adding sterile water to the plate and scrape on the surface of the culture. The heavy spore suspension was filtered through Myra cloth. Two ml of the spore solution was inoculated into 200 ml seed medium (2.0 g/l wheat bran, 5 g/l corn steep powder, 0.25 g/l yeast extract, 0.75 g/l peptone, 1.4 g/l (NH4)2SO4, 2.0 g/l KH2PO4, 0.4 g/l CaCl2 2H2O, 0.3 g/l MgSO4H2O, 5.0 mg/l FeSO4, 1.6 mg/l MnSO4 7H2O, 1.4 mg/l ZnSO4 7H2O, 2.0 CoCl2 6H2O) in an 500 ml Erlenmeyer flask, and incubated at 30° C. for 2 days, shaking at 160 rpm. […] The samples were incubated at 30° C. without shaking. After 7 days incubation, liquid was extracted from the medium by pressing the medium by hand using gloves. The extract was centrifuged at 10000 g, and the supernatant filtered through Whatman filter paper. In this work specific activity (U/mg) is defined as units per amount of total protein. […] Samples were assayed at different concentrations in triple determination to ensure substrate saturation in the assay. […] Triple determinations were performed. A substrate saturation curve was prepared by plotting substrate concentration [S] vs reaction rate, v. […]

[9] = test system: A. phoenicis QM329 beta-glucosidase; settings: cited from earlier work
[10] = test system: A. niger NIAB280 beta-glucosidase; settings: hydrolysis of cellobiose, 50° C., pH 5.0; cited from earlier work
[11] = test system: A. niger beta-glucosidases; settings: cellobiose; general literature search; cited from earlier work
[12] = cellobiose, jointly for A. phoenicis, A. niger, A. carbonarius (Jager et al., 2001)
[13] = hydrolysis of cellobiose, 50° C., pH 4.0

OC[C@H]1O[C@@H](O[C@H]2[C@H](O)[C@@H](O)C(O)O[C@@H]2CO)[C@H](O)[C@@H](O)[C@@H]1O (some centres unmarked) [cellobiose]
Km [1]: 1000 µM | Km [2, 12]: 2000 to 3000 µM | Vmax [2, 13]: 15.4 U/mg | Km ([3]; pH 4.8, Hanes-Wolf plot): 1060 µM | Vmax ([3]; pH 4.8, per total protein): 7.5 U/mg | Vmax [4]: 45 U/mg | Km [5, 12]: 2000 to 3000 µM | Vmax [5, 13]: 38.8 U/mg | Vmax [6]: 5.27 U/mg | Km ([7]; pH 4.8, Hanes-Wolf plot): 1690 µM | Vmax ([7]; pH 4.8, per total protein): 22.9 U/mg | Km ([8]; pH 4.8, Hanes-Wolf plot): 1090 µM | Vmax ([8]; pH 4.8, per total protein): 11.3 U/mg | Km [9, 12]: 2000 to 3000 µM | Vmax [9, 13]: 27.3 U/mg | Vmax [10]: 36.5 U/mg | Km [11]: 1500 to 5600 µM
